Data on three compounds can be found in patent US9956232B2, “Dialkyl-phosphinoyl-alkane (Dapa) compounds and compositions for treatment of lower gastrointestinal tract disorders” (priority 2016, dated 2018).

For one experiment, the target named is TRPV1 (Homo sapiens, UniProt Q8NER1). The experiment is described as follows: TRPV1 calcium imaging (Fura-2AM) in transfected KNRK cells. It is filed as cell-based. The arrangement: expressed in transfected cells; host or cells: KNRK cells, transient transfection with Lipofectamine 2000. To be noted: KNRK cells transiently transfected with TRPV1. As to the method:
(§1) DAPA-1-9 was tested on TRPV1 channels and TRPA1 channels expressed in KNRK cells (Kirsten murine sarcoma virus transformed kidney epithelial cells). KNRK cells were cultured as a monolayer and maintained in DMEM (Life Technologies), supplemented with 10% FBS (Life Technologies), 100 units/ml penicillin and 100 μg/ml streptomycin, in an incubator of 5% CO2 at 37° C. After suspension, the cells were coated on cover slips for 12 hours, then transiently transfected with cDNA (pc3.1 DNA) for TRPV1 or TRPA1 with Lipofectamine 2000 (Invitrogen) for 24 hr, and loaded with Fura-2AM™ (Molecular Probes) for 40 min at 37° C. After washing and recovery, KNRK cells were imaged at 340 and 380 nm excitation to detect free calcium influx. An increase of 50% of the 340/380 ratio was considered as the response threshold which were measured under blinded conditions for plasmids. Compounds were applied to the bath and calcium response was acquired by an inverted Nikon fluorescence microscope with a CoolSnap HQ2 CCD camera (Photometrics, Tucson, Ariz.). Data were quantified offline with the Nikon-NIS program.

Experiment [1] concerns the target T1, TRPM8 (Homo sapiens, UniProt Q7Z2W7). In words: TRPM8 receptor agonist assay (Fluo-8 calcium, FLIPR). It is filed as cell-based. The arrangement: host or cells: CHO cells, stably transfected. As to the method:
Compounds were tested on (CHO) cells stably transfected with human TRPM8 cDNAs using a Fluo-8 calcium kit and a Fluorescence Imaging Plate Reader ([…]™) instrument. […] Solutions were prepared by diluting stock solutions in a HEPES-buffered physiological saline (HBPS) solution. Test compound and control formulations were loaded in polypropylene or glass-lined 384-well plates, and placed into the FLIPR instrument (Molecular Devices Corporation, Union City, Calif., USA). Each was tested at 8 concentrations with n=4 replicates per determination. […] For […]™ assay, cells were plated in 384-well black wall, flat clear-bottom microtiter plates (Type: BD Biocoat Poly-D-Lysine Multiwell Cell Culture Plate) at approximately 30,000 cells per well. Cells were incubated at 37° C. overnight to reach a near confluent monolayer appropriate for use in a fluorescence assay. The test procedure was to remove the growth media and to add 40 μL of HBPS containing Fluo-8 for 30 minutes at 37° C. 10 μL of test compound, vehicle, or control solutions in HBPS were added to each well and read for 4 minutes. Concentration-response data were analysed via the FLIPR Control software that is supplied with the FLIPR System (MDS-AT) and fitted to a Hill equation.
Target sequence in this assay (Q7Z2W7 whole entry): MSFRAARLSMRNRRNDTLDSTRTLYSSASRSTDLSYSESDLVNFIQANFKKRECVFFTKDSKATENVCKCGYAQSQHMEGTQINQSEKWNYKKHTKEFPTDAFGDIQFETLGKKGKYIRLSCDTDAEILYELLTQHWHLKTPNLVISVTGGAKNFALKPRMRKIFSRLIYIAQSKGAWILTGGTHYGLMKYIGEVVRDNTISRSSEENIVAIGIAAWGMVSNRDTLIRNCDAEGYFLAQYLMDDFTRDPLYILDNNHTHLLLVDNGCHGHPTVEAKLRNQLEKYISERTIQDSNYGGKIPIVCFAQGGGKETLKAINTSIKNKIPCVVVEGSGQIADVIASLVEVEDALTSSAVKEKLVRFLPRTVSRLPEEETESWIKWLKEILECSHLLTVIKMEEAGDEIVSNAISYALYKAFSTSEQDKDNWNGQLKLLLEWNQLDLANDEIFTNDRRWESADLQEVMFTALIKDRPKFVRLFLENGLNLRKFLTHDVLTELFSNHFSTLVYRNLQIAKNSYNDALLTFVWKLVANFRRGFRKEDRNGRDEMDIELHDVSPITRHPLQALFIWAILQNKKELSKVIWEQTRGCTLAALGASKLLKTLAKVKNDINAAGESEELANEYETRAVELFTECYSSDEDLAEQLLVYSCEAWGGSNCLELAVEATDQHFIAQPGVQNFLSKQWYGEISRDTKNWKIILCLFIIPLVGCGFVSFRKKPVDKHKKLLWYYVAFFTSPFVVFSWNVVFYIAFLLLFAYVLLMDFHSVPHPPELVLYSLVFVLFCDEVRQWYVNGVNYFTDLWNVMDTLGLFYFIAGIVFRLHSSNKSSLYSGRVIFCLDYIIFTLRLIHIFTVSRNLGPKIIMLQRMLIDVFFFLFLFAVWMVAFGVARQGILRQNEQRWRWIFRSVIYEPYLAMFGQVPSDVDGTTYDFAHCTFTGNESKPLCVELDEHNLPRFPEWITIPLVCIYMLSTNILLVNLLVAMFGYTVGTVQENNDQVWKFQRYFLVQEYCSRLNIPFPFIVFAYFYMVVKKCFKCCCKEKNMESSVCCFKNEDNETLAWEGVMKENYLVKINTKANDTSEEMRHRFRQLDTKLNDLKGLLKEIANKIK

Experiment [2] relates to pentobarbital-anesthetized male rats. The experiment is described as follows: Shaking frequency (wet-dog shaking) of anesthetized rats after intravenous, perioral or topical delivery. In kind it is in vivo. Particulars: anesthetized rat. Here is the method:
In experiments conducted here, test compounds were evaluated for “wet-dog shaking” as a model of cooling sensation. Using a standardized procedure, test compounds were compared in their ability to stimulate the shaking response by intravenous injection into a cannulated femoral vein, by perioral administration, and by topical delivery to the abdominal skin.
Each rat was given two injections with a 30 min interval. […] Shaking frequency was counted for 15 min after injection. Shaking was observed immediately after i.v. injection and at least 78% of the total shakes occurred in the first 5 min after injection. The response in the second trial was at least as robust in the first trial, showing the lack of desensitization.
Test compounds were dissolved in saline and administered by oral gavage to pentobarbital-anesthetized male albino rats at 20 mg/kg at a volume of 0.1 mL/100 g body weight [N=3 to 4 rats per compound]. Shaking was counted over a 40 min period and recorded at 10-min intervals.
For topical application of DAPA, the abdominal skin of the anesthetized rat was shaved and 20 μL of the pure DAPA was applied with a micropipette onto a ˜1 cm diameter circle of skin, enclosed with a ring of cream [Baby cream “Nevskaya kosmetika Detskyi” Nevskaya Kosmetika Inc., Saint-Petersburg 192029], as shown in FIG. 5D. The number of shakes was counted for 1 hr after application.

For the next experiment, the target named is TRPA1 (Homo sapiens, UniProt O75762). In words: TRPA1 calcium imaging (Fura-2AM) in transfected KNRK cells. The arrangement: expressed in transfected cells; host or cells: KNRK cells, transient transfection with Lipofectamine 2000. It is filed as cell-based. Particulars: KNRK cells transiently transfected with TRPA1. As to the method:
as §1

The target in experiment [3] is T1, TRPM8. In words: TRPM8 assay of DIPA-1-10 at King's College, different assay conditions. It is filed as cell-based. From the text: [Table 2] […] The data for DIPA-1-10 is not included in the Table 2 or Figure because it was obtained under different assay conditions.
Target sequence in this assay (Q7Z2W7 whole entry, species assumed): as the sequence (Q7Z2W7 whole entry) above
The target of experiment [4] is T1, TRPM8. Particulars: literature; cited from earlier work.
Target sequence in this assay (Q7Z2W7 whole entry, species assumed): as the sequence (Q7Z2W7 whole entry) above

Chain of TRPV1 (Q8NER1 whole entry, species assumed): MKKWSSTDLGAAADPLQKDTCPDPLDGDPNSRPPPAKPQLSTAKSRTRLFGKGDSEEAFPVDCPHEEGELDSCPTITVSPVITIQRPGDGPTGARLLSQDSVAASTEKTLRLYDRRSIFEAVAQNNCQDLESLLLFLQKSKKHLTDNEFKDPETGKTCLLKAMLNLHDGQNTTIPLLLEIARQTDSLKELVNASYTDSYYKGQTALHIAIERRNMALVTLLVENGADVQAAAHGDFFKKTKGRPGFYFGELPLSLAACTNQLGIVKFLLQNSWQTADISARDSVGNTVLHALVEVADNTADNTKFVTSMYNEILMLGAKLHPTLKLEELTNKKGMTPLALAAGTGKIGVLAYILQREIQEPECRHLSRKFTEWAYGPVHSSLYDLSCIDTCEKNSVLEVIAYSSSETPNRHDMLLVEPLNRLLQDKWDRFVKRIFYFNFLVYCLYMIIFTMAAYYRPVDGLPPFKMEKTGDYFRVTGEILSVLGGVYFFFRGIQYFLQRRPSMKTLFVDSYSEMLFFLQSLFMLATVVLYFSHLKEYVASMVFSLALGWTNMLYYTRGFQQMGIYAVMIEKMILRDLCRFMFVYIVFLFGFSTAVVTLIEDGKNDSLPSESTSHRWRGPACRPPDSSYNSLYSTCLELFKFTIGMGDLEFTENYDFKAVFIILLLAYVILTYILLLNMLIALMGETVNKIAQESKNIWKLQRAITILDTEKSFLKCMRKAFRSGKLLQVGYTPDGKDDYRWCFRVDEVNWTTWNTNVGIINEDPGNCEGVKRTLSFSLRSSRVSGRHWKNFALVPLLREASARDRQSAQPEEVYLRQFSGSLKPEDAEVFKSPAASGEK
Chain of TRPA1 (O75762 whole entry, species assumed): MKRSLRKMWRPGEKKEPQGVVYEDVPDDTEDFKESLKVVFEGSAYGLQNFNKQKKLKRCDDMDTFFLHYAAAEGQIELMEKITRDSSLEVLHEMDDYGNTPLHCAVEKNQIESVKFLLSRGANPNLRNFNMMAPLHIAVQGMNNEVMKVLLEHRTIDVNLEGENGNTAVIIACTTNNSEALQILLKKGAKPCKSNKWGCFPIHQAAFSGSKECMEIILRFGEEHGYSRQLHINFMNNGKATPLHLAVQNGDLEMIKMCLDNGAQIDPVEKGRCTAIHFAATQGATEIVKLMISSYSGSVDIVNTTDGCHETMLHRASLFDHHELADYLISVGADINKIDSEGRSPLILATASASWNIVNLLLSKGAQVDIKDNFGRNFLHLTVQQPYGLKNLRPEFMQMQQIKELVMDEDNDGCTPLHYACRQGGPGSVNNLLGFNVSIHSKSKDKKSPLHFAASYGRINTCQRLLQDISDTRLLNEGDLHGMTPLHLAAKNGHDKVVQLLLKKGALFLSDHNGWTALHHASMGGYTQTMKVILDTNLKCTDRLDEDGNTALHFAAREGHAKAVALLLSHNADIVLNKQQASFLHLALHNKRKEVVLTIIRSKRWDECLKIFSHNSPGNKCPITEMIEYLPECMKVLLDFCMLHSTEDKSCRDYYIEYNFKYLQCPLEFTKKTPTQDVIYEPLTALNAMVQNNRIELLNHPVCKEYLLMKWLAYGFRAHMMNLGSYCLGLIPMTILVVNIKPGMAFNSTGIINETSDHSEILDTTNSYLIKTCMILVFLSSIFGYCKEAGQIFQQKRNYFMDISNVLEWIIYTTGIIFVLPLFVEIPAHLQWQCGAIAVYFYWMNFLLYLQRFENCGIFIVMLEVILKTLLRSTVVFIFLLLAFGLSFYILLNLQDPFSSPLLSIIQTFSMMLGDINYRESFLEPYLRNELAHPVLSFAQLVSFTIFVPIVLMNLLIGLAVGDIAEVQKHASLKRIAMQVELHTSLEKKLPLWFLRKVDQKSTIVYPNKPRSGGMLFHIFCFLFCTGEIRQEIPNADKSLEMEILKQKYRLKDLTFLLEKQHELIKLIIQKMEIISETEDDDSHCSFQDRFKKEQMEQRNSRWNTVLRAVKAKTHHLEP

Take `CCCCCCCCCP(=O)(C(C)C)C(C)C` [DIPA-1-9, 1-[Diisopropyl-phosphinoyl]-nonane]: on TRPV1, the “agonist or antagonist activities against TRPV1” value is reported as “devoid of agonist or antagonist activities”. The “×Menthol” value on TRPM8 [1] (TRPM8 relative potency as repeated in Table 4) was found to be 4.0. In addition, at TRPM8 [1] (relative to menthol = 1.0 (Table 2)), the “Relative Potency” value is given as 4.0. The “Shaking frequency, Intravenous” value in experiment [2] (2 mg/kg i.v., 2nd trial, counted for 15 min) was found to be 3 ± 1 shakes. The “Shaking frequency, Perioral” value in experiment [2] (20 mg/kg by oral gavage, counted for 40 min) is given as 0 shakes. Besides, the “Shaking frequency, Topical” value in experiment [2] (20 μL pure compound on shaved abdominal skin, counted for 1 hr) stood at 0 shakes. In addition, the “agonist or antagonist activities against TRPA1” value on TRPA1 is “devoid of agonist or antagonist activities”.

For `CCCCCCCCCCP(=O)(C(C)C)C(C)C` [DIPA-1-10], at TRPM8 [3], the “potency × menthol” value came out at 1.7 × and the “times less active than DIPA-1-9” value came to 2.4 ×.

In the case of `O=C1NC(c2cccc([N+](=O)[O-])c2)=CCN1c1ccccc1O` [Icilin], the “TRPM8 agonist potency × menthol” value at TRPM8 [4] is 200 ×.
